Measurements as given in BigSolDB 2.1.

CC(C)(C)c1ccc(OP2OCC3(CO2)COP(Oc2ccc(C(C)(C)C)cc2C(C)(C)C)OC3)c(C(C)(C)C)c1 (stereo not drawn)
Details | solubility (mole fraction)
in ethanol, 303.25 K | 0.000185
in ethanol, 308.15 K | 0.000249
in ethanol, 312.85 K | 0.000324
in ethanol, 318.15 K | 0.000365
in ethanol, 322.95 K | 0.000426
in ethanol, 328.15 K | 0.000534
in ethanol, 332.15 K | 0.000669
in isopropanol, 304.15 K | 0.000296
in isopropanol, 308.35 K | 0.000371
in isopropanol, 313.15 K | 0.000473
in isopropanol, 318.25 K | 0.000657
in isopropanol, 323.15 K | 0.000752
in isopropanol, 327.95 K | 0.00113
in isopropanol, 333.35 K | 0.00163
in methanol, 304.65 K | 5.05e-05
in methanol, 308.25 K | 5.84e-05
in methanol, 312.95 K | 7.84e-05
in methanol, 318.15 K | 0.000119
in methanol, 322.65 K | 0.000154
in n-propanol, 303.15 K | 0.000477
in n-propanol, 308.15 K | 0.000582
in n-propanol, 313.05 K | 0.000735
in n-propanol, 318.25 K | 0.000925
in n-propanol, 322.75 K | 0.00113
in n-propanol, 327.95 K | 0.00146
in n-propanol, 333.15 K | 0.00182
in tert-butanol, 302.95 K | 0.000674
in tert-butanol, 308.05 K | 0.000853
in tert-butanol, 313.15 K | 0.0012
in tert-butanol, 318.45 K | 0.00157
in tert-butanol, 323.05 K | 0.00222
in tert-butanol, 328.45 K | 0.00302
in tert-butanol, 332.95 K | 0.00379
